{"source": "patent US10143696B2", "about": "“Methods and compositions for decreasing gastric emptying” (priority 2015, dated 2018)", "type_in_all_cases": "in vivo, rat", "key": {"Sprague-Dawley rats [1]": {"tested_on": "Sprague-Dawley rats", "experiment": "Gastric emptying of a test meal in rats", "description": "Rats were fasted overnight (16-18 hours) with free access to water. The next morning, compound was administered and animals were individually housed in bedding-free cages with pre-weighed food available ad libitum and access to water for 2 hours. The water and food were then removed and the remaining food was re-weighed. Gastric emptying of the ingested meal was assessed 4 hours later. Animals were euthanized by CO2 inhalation followed by thoracotomy. The abdominal cavity was opened, the pylorus and cardia were clamped and the stomach was removed. The excised stomach was weighed and then opened along the greater curvature, rinsed with tap water, lightly dried and re-weighed. The amount of food in the stomach (grams) was estimated based on the difference between the total weight of the stomach plus its contents and the weight of the stomach after the contents were removed. The meal ingested (food intake) was determined by the difference between pre- and post-feeding weight at the end of the 2 hour period. Gastric emptying during the 4 hour experiment is represented as: Gastric emptying=[1−(gastric content/food intake)]×100. Gastric Secretion\nMale, Sprague-Dawley rats (weighing between 229-264 g each and 4 rats per test group) were fasted overnight (19 hours). The rats were then orally administered 10 mg/kg, 30 mg/kg or 100 mg/kg of Compound A with a 0.5% MC or Capryol:Solutol:Polyethyleneglycol (CSP) vehicle or with a 0.5% MC or CSP vehicle alone. The rats were then placed in individual, bedding-free cages and allowed ad libitium access to pre-weighed food and water for two hours. The food and water were then removed and the food was reweighed. Gastric emptying was then assessed four hours later by euthanizing the rats and analyzing the stomach and stomach contents. […] Data are represented as the means+the standard error of the means (S.E.M). % Gastric Emptying in 4 hours=(1−(gastric content/food intake))×100. […] Data are represented as the means+S.E.M.\nMale, Sprague-Dawley rats (weighing between 235-268 g each and 4-6 rats per test group) were fasted overnight (19 hours). The rats were then subcutaneously administered 10 mg/kg, 30 mg/kg or 100 mg/kg of carbamazepine (Compound B) with a 25% HPBCD vehicle or with a 25% HPBCD vehicle alone. Some test animals were not dosed (i.e., naïve). The rats were then placed in individual, bedding-free cages and allowed ad libitium access to pre-weighed food and water for two hours. The food and water were then removed and the food was reweighed. […] Data are represented as the means+S.E.M. % Gastric Emptying in 4 hours=(1−(gastric content/food intake))×100.\nMale, Sprague-Dawley rats (weighing between 238-274 g each and 6 rats per test group) were fasted overnight (19 hours). The rats were then orally administered 30 mg/kg, 100 mg/kg or 300 mg/kg of carbamazepine (Compound B) with a 0.5% MC vehicle or with a 0.5% MC vehicle alone. The rats were then placed in individual, bedding-free cages and allowed ad libitium access to pre-weighed food and water for two hours. The food and water were then removed and the food was reweighed. […] Data are represented as the means+S.E.M. % Gastric Emptying in 4 hours=(1−(gastric content/food intake))×100.\nMale, Sprague-Dawley rats (weighing between 235-276 g each and 4-6 rats per test group) were fasted overnight (19 hours)."}, "Sprague-Dawley rats [2]": {"tested_on": "Sprague-Dawley rats", "experiment": "Gastrointestinal transit, charcoal meal assay", "settings": "for dosage level with significant effect on stomach weight / stomach weight: charcoal meal assay; for stomach weight: vs vehicle treated animals; for gastrointestinal transit (% small intestinal transit): charcoal meal, 60 minutes pretreatment, vs vehicle", "description": "Small intestinal transit was measured based on a known method which involved the oral administration of a charcoal meal (Gmerek et al. (1986). “Independent central and peripheral mediation of morphine-induced inhibition of gastrointestinal transit in rats.” J Pharmacol Exp Ther 236(1): 8-13). Rats were fasted with free access to water for 18 hours. Test compound or vehicle was dosed prior to oral administration of a charcoal slurry containing activated charcoal, flour and water in a ratio of 1:2:7.5 (10 ml/kg orally). One hour after receiving the charcoal slurry, rats were euthanized by CO2 asphyxiation. The stomach and GI tract was excised from each animal. Whole stomach weight was recorded and the length of the small intestine (cm) (stomach to cecum) and the distance (cm) to the leading edge of charcoal was measured. Small intestinal transit data are expressed as a percentage of the distance traveled (i.e. % small intestinal transit=(distance charcoal traveled)/(total length of small intestine (stomach to cecum)×100). Pretreatment times were determined on the basis of pharmacokinetic data (not shown) and were as follows: Compound A, 60 minutes, Compound C, 60 minutes; carbamazepine, 60 minutes. Morphine was administered with a pretreatment time of 30 mins based on previous experience."}, "Sprague-Dawley rats [3]": {"tested_on": "Sprague-Dawley rats", "experiment": "Gastric secretion volume and pH in fasted rats", "settings": "lansoprazole 30 mg/kg orally, alone (Example 17)", "description": "Gastric section and acidity was assessed by direct measurement in fasted animals (Melo et al. (2006). “Effect of acid secretion blockade on acute gastric mucosal lesions induced by Tityus serrulatus scorpion toxin in anaesthetized rats.” Toxicon 48(5): 543-549). Rats were fasted with free access to water for 24 hours on wire inserts without bedding. The next day, all rats were dosed orally with 0.5% MC (5 ml/kg) to remove any residual stomach contents and test compound or vehicle was administered. The animals were water deprived for 3 hours, anesthetized with isoflurane (5% in O2), and a laparotomy was conducted followed by tight ligation of the pylorus and cardia. After ligation, the stomach was removed and the rat was immediately euthanized by decapitation. The stomach was opened along the greater curvature and gastric fluid collected into Eppendorf tubes and centrifuged (5 min at 10×1000 g). pH was determined by pipetting gastric fluid directly onto an indicator stick (Whatman, Panpeha Plus, pH0-14). Data are represented as the mean volume and mean pH.\nMale, Sprague-Dawley rats (weighing between 254-270 g each and 6 rats per test group) were fasted overnight (24 hours) on wire inserts without bedding. The rats were first orally dosed with 0.5% MC vehicle and then subcutaneously injected with 3 mg/kg or 10 mg/kg of Compound A with a 25% HPBCD vehicle or with a 25% HPBCD vehicle alone. The test animals were water deprived for 3 hours and then anesthetized with isoflurane and the pylorus and cardia were tightly ligated. The stomachs were then removed and the rats were euthanized. The gastric fluid was removed from the stomachs and collected in eppendorf tubes by cutting along the greatest curvature and spun in a centrifuge. Gastric secretion data were analyzed by a one-way ANOVA using a Bonferroni Multiple Comparison test, where *P<0.05 and **P<0.01 as compared to the appropriate vehicle. Data are represented as the means+S.E.M. PH data were analyzed by a one-way ANOVA using Dunnett's Multiple Comparison Test. Data are represented as the means+S.E.M.\nThis Example measured volume and pH of gastric secretion three hours post subcutaneous administration of 10 mg/kg of Compound A. The animals were water deprived during this time."}, "[4]": {"settings": "comparison at equal or similar dosages, routes and vehicles"}, "[5]": {"settings": "i.p. 10, 30, 100 mg/kg, 25% HPBCD vehicle (Example 8)"}, "[6]": {"settings": "p.o. 10 mg/kg and 30 mg/kg, 0.5% MC vehicle (Example 6)"}, "[7]": {"settings": "p.o. 100 mg/kg and 300 mg/kg, 0.5% MC vehicle (Example 7)"}, "[8]": {"settings": "p.o. 100 mg/kg, 0.5% MC vehicle (Example 6)"}, "[9]": {"settings": "s.c. 10, 30, 100 mg/kg, 25% HPBCD vehicle (Example 6)"}, "[10]": {"settings": "p.o. 30, 100, 300 mg/kg, 0.5% MC vehicle (Example 5)"}, "[11]": {"settings": "s.c. 10, 30, 100 mg/kg, 25% HPBCD vehicle (Example 4)"}}, "note": "“Also recorded” adds a separate entry of the source."}
{"compound": "O=S(=O)(Nc1nncs1)c1cc(Cl)c(Oc2ccc(C(F)(F)F)cc2-c2ccnnc2)cc1F", "note": "[Compound D]", "values": [{"measurement": "gastric emptying inhibition potency compared between compounds", "setting": "Sprague-Dawley rats [1]; [4]", "value": "greater gastric emptying inhibition potency than Compounds B and C"}, {"measurement": "stomach weight", "setting": "Sprague-Dawley rats [1]; i.p. 10 mg/kg and 100 mg/kg, 25% HPBCD vehicle (Example 8)", "value": "increases stomach weight"}, {"measurement": "% Gastric Emptying in 4 hours", "setting": "Sprague-Dawley rats [1]; [5]", "value": "inhibits gastric emptying"}, {"measurement": "food intake", "setting": "Sprague-Dawley rats [1]; [5]", "value": "reduces food intake"}]}
{"compound": "CN1CC[C@]23c4c5ccc(O)c4O[C@H]2[C@@H](O)C=C[C@H]3[C@H]1C5", "note": "[morphine, reference compound]", "values": [{"measurement": "gastrointestinal transit", "setting": "Sprague-Dawley rats [2]; rat, in vivo", "value": "less than 35%"}, {"measurement": "stomach weight (average)", "setting": "Sprague-Dawley rats [2]; rat, in vivo", "value": "over 7 g"}]}
{"compound": "COc1cc2nc(N3CCN(C(=O)C4CCCO4)CC3)nc(N)c2cc1OC", "note": "(centres unmarked) [terazosin, reference compound]", "values": [{"measurement": "% Gastric Emptying in 4 hours", "setting": "Sprague-Dawley rats [1]; rat, in vivo", "value": "Neither terazosin nor atenolol alone had a significant effect"}]}
{"compound": "NC1=N[C@H](O)[C@H]2[C@H]3O[C@]4(O)O[C@@H]([C@@H](O)[C@@]2(N1)[C@@H]4O)[C@]3(O)CO", "note": "[TTX, tetrodotoxin, reference compound]", "values": [{"measurement": "gastric emptying inhibition potency compared between compounds", "setting": "Sprague-Dawley rats [1]; rat, in vivo", "value": "comparable to that achieved by 30 mg/kg of Compound A administered orally"}, {"measurement": "% Gastric Emptying in 4 hours", "setting": "Sprague-Dawley rats [1]; rat, in vivo, sc", "value": "inhibits gastric emptying; also recorded: statistically significant decrease in gastric emptying"}, {"measurement": "food intake", "setting": "Sprague-Dawley rats [1]; rat, in vivo, sc", "value": "reduces food intake; also recorded: dose dependent decrease in food intake"}]}
{"compound": "Cc1c(OCC(F)(F)F)ccnc1C[S+]([O-])c1nc2ccccc2[nH]1", "note": "(centres unmarked) [Lansoprazole, lansoprazole, reference compound]", "values": [{"measurement": "pH of gastric secretion", "setting": "Sprague-Dawley rats [3]", "value": "increase the pH"}, {"measurement": "volume of gastric secretion", "setting": "Sprague-Dawley rats [3]", "value": "did not affect volume of gastric secretion"}]}
{"compound": "NC(=O)[C@@H]1CC[C@H](c2ccc(OCc3ccccc3F)cc2)N1", "note": "[Compound C]", "values": [{"measurement": "gastric emptying inhibition potency compared between compounds", "setting": "Sprague-Dawley rats [1]; [4]", "value": "least potent"}, {"measurement": "% Gastric Emptying in 4 hours", "setting": "Sprague-Dawley rats [1]; [6]", "value": "did not affect"}, {"measurement": "food intake", "setting": "Sprague-Dawley rats [1]; [6]", "value": "reduced food intake"}, {"measurement": "stomach weight", "setting": "Sprague-Dawley rats [1]; [6]", "value": "did not affect"}, {"measurement": "% Gastric Emptying in 4 hours", "setting": "Sprague-Dawley rats [1]; [7]", "value": "inhibits gastric emptying"}, {"measurement": "stomach weight", "setting": "Sprague-Dawley rats [1]; [7]", "value": "increases stomach weight"}, {"measurement": "% Gastric Emptying in 4 hours", "setting": "Sprague-Dawley rats [1]; [8]", "value": "inhibits the percentage of gastric emptying"}, {"measurement": "food intake", "setting": "Sprague-Dawley rats [1]; [8]", "value": "reduces food intake"}, {"measurement": "stomach weight", "setting": "Sprague-Dawley rats [1]; [8]", "value": "increases stomach weight"}, {"measurement": "food intake", "setting": "Sprague-Dawley rats [1]; p.o. 10-300 mg/kg, 0.5% MC vehicle (Example 7)", "value": "reduces food intake"}, {"measurement": "% Gastric Emptying in 4 hours", "setting": "Sprague-Dawley rats [1]; [9]", "value": "did not inhibit the percentage of gastric emptying"}, {"measurement": "food intake", "setting": "Sprague-Dawley rats [1]; [9]", "value": "decreased"}, {"measurement": "stomach weight", "setting": "Sprague-Dawley rats [1]; [9]", "value": "decreased"}, {"measurement": "dosage level with significant effect on stomach weight", "setting": "Sprague-Dawley rats [2]", "value": 100, "unit": "mg/kg"}, {"measurement": "stomach weight", "setting": "Sprague-Dawley rats [2]", "value": "statistically significant increase in stomach weight"}, {"measurement": "gastrointestinal transit (% small intestinal transit)", "setting": "Sprague-Dawley rats [2]", "value": "No statistically significant decrease in gastrointestinal transit"}]}
{"compound": "NC(=O)N1c2ccccc2C=Cc2ccccc21", "note": "[Compound B, carbamazepine, reference compound]", "values": [{"measurement": "percent of gastric inhibition, oral 0.5% MC compared with subcutaneous 25% HPBCD", "setting": "Sprague-Dawley rats [1]; equal dosage, Examples 4 and 5", "value": "numerically more potent"}, {"measurement": "% Gastric Emptying in 4 hours", "setting": "Sprague-Dawley rats [1]; [10]", "value": "inhibits gastric emptying"}, {"measurement": "food intake", "setting": "Sprague-Dawley rats [1]; [10]", "value": "reduces food intake"}, {"measurement": "stomach weight", "setting": "Sprague-Dawley rats [1]; [10]", "value": "increases stomach weight"}, {"measurement": "stomach weight", "setting": "Sprague-Dawley rats [1]; s.c. 100 mg/kg, 25% HPBCD vehicle (Example 4)", "value": "stomach weight increase"}, {"measurement": "% Gastric Emptying in 4 hours", "setting": "Sprague-Dawley rats [1]; [11]", "value": "inhibits the percent of gastric emptying"}, {"measurement": "food intake", "setting": "Sprague-Dawley rats [1]; [11]", "value": "food intake decreased"}, {"measurement": "dosage level with significant effect on stomach weight", "setting": "Sprague-Dawley rats [2]", "value": 30, "unit": "mg/kg"}, {"measurement": "stomach weight", "setting": "Sprague-Dawley rats [2]", "value": "statistically significant increase in stomach weight"}, {"measurement": "gastrointestinal transit (% small intestinal transit)", "setting": "Sprague-Dawley rats [2]", "value": "No statistically significant decrease in gastrointestinal transit; also recorded: decreasing trend"}]}
